For 1 compound, Kd and IC50 results are on record in BindingDB's records for patent US20250127913 (Lycia Therapeutics, 2025).

Assay [1] concerns the target T1, Folate receptor beta (Homo sapiens, UniProt P14207). Description: Folate Receptor SPR Assay. Here is the method:
Table 16: Folate receptor SPR binding assays were conducted on a Biacore 8K instrument (Cytiva) using biotinylated folate receptor beta (Acro Biosystems). Briefly, folate receptor was immobilized at -550 RU on a streptavidin chip (Cytiva) in 10 mM HEPES pH 7.5, 150 mM NaCl, 0.05% Tween 20. Multi-cycle kinetic studies were conducted with 8 compound concentrations using 2-fold dilutions in 10 mM HEPES pH 7.5, 150 mM NaCl, 0.05 % Tween 20, 2% DMSO at 25° C. A flow rate or 75 μl/mmn with an association time of 120 s and a dissociation time of 600 s were used. Surfaces were regenerated with 4 M MgCl2 at 30 μl/min for 30 s. Data were fit to a 1:1 model to determine the reported binding parameters.

The target in assay [2] is T1, Folate receptor beta. Description: Folate Receptor Binding Assay. Here is the method: Table 15: Folate receptor binding was measured in black 96-well plates using a fluorescence polarization assay. A fluorescent probe consisting of a folate analog linked to Cy5 (FR-Cy) was custom synthesized. Test compounds were resuspended in DMSO and 3-fold serial dilutions were made from 300-0.015 μM (100× final concentrations). Binding reactions were conducted in 200 μl final volume in 20 mM Hepes (pH 7.5) 250 mM NaCl 0.0150 Tween-20 1% DMSO with 2.5 nM folate receptor beta (Acro Biosystems) and 2 nM probe. Fluorescence polarization was measured using λex=620 nm, λem=688 nm on an Envision plate reader (Perkin Elmer) after 2 hr incubation time. Dose responses were conducted in duplicate and normalized to the response with DMSO (high) and 1 μM folic acid (low) on each plate. IC50 values were determined by fitting to 4-parameter curves in GraphPad Prism.

The target in the next assay is Tumor necrosis factor (Homo sapiens, UniProt P01375). Description: TNFα Binding Assay. Here is the method:
Table 15: TNFα binding was measured in black 96-well plates using a time-resolved FRET assay using a previously described fluorescence acceptor TNFα probe (Xiao et al J. Med. Chem. 2020). Biotinylated TNFα was purchased from Acro Biosystems. Binding reactions were conducted in 20 mM Hepes (pH 7.5) 10 mM MgCl2 0.015% Tween-20 0.05 mg/ml BSA 2% DMSO with 1 nM TNFα 0.5 nM Streptavidin-Tb and 80 nM probe. Test compounds were resuspended in DMSO and 3-fold serial dilutions were made at 100× final concentrations. Fluorescence was measured using λex=340 nm, λem=490, 520 nm on an SpectraMax M5e plate reader (Molecular Devices) after 16 hr incubation time. Dose responses were conducted in duplicate and normalized to the response with DMSO (high) and 100 nM (R)-3-(1-((3-chloro-7-fluoro-6-(2-(2-hydroxypropan-2-yl)pyrimidin-5-yl)-2-methyl-1,5-naphthyridin-4-yl)amino)ethyl)-4-fluorobenzonitrile (low) on each plate. IC50 values were determined by fitting to 4-parameter curves in GraphPad Prism.

Structures are written as SMILES.

T1 sequence (P14207 whole entry): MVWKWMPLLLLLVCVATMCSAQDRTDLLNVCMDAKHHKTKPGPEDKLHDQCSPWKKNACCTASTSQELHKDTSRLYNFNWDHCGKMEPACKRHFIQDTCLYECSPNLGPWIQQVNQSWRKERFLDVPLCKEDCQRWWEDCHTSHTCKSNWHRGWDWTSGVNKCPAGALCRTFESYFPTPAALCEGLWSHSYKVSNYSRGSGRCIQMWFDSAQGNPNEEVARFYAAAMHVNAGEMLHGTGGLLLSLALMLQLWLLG
Sequence of Tumor necrosis factor (P01375 whole entry): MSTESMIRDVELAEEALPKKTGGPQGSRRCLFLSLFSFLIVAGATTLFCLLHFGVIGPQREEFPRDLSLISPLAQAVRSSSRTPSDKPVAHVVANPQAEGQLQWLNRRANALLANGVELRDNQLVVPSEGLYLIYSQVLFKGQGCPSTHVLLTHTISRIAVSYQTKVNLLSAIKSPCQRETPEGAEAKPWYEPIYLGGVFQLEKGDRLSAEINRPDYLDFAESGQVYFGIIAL

As a reminder, the Kd is the equilibrium constant for the complex coming apart. High values mean weaker binding, low ones tighter binding. For orientation: IC50 means the concentration that inhibits the measured activity by half. Low readings indicate greater potency in that assay, high ones weaker potency in that assay. Compound `Cc1nc2cc(F)c(-c3cnc(N4CCN(C(=O)COCCn5cc(COCCOCCOCCOCCNC(=O)CC[C@H](NC(=O)[C@H]6CC[C@H](NCc7cnc8nc(N)nc(O)c8n7)CC6)C(=O)O)nn5)CC4)nc3)nc2c(N[C@H](C)c2ccccc2F)c1Cl` [US20250127913, Compound I-91] returned a Kd at Folate receptor beta [1] of 0.000201 µM. Also, the IC50 on Folate receptor beta [2] stood at 0.138 µM; at Tumor necrosis factor, 0.0175 µM.
